Laboratory results as given in patent publication US20020032236A1, “Method for the treatment of dermatological diseases by using nimesulide” (priority 2000, published 2002).

Test system: pustular psoriasis, gangrenous pyoderma, capillitium erosive dermatitis and Dick & Syme syndrome
Conditions: 200 mg/day for 3 weeks, followed by 100 mg/day for three weeks
Experimental: Double blind clinical studies were carried out on patients suffering from pustular psoriasis, gangrenous pyoderma, capillitium erosive dermatitis and Dick & Syme syndrome. Patients were treated with Nimesulide, at a dosage of 200 mg/day for 3 weeks, followed by 100 mg/day for three weeks.
At the end of the treatment, the following parameters were evaluated: number of the skin lesions extent of the skin lesions relief from pain at the nodule sites

[1] = patients, at the end of the treatment

CS(=O)(=O)Nc1ccc([N+](=O)[O-])cc1Oc1ccccc1 [Nimesulide]
remission of the "disease" (in some cases): complete remission
side effects (patients): no side effects were observed
effectiveness in the treatment of the "diseases" [1]: statistically effective
extent of the skin lesions [1]: regression of the skin lesions
number of the skin lesions [1]: regression of the skin lesions
relief from pain at the nodule sites [1]: almost complete disappearance of pain
